Reference: patent publication US10160729B2, “Hsp70 modulators and methods for making and using the same” (Memorial Sloan Kettering Cancer Center, priority 2014, dated 2018)
pEC50: −log10 of the molar value.

The compounds below were run on MOLM-13 cells (assay: Caspase cleavage assay (Caspase3, 7 activation)). Settings: Homo sapiens, 16 h treatment, caspase substrate Z-DEVD-R110, read-out: c* Concentration at which 50% of the maximum signal was achieved (caspase activation).
Format: cell-based
Procedure: Caspase3, 7 Activation. MOLM-13 cells (30,000 cells/well) were plated in black 96-well plates (Corning Cat. #3603) in 40 μL of RPMI media, and left in an incubator (37° C., 5% CO2) for up to 24 h. Cells were treated for 16 h with compounds or DMSO (control) at desired concentrations in 50 μL of media. Drugs were added in triplicate wells. Following exposure of cells to Hsp70 inhibitors, 50 μL of buffer containing 10 mM HEPES (pH 7.5), 2 mM EDTA, 0.1% CHAPS and the caspase substrate Z-DEVD-R110 at 25 μM was added to each well. Plates were incubated until the signal stabilized and then the fluorescence signal of each well was measured in an Analyst GT microplate reader. The percentage increase in apoptotic cells was calculated by comparison of the fluorescence reading obtained from treated versus control cells.

SMILES	pEC50
CN1CCN(c2ncc(Sc3ccc(C(N)=O)cc3)c(OCc3cccc(N(C)C)c3)n2)CC1 [100a, 4-((4-((3-(Dimethylamino)benzyl)oxy)-2-(4-methylpiperazin-1-yl)pyrimidin-5-yl)thio)benzamide]	> 6.70
CN1CCN(c2ncc(Sc3ccc(C(N)=O)cc3)c(OCc3cccc(N4CCCC4)c3)n2)CC1 [100b, 4-((2-(4-Methylpiperazin-1-yl)-4-((3-(pyrrolidin-1-yl)benzyl)oxy)pyrimidin-5-yl)thio)benzamide]	6.40 to 6.70
CN1CCN(c2ncc(Sc3ccc(C(N)=O)cc3)c(OCc3ccc(F)c(N(C)C)c3)n2)CC1 [100c, 4-((4-((3-(Dimethylamino)-4-fluorobenzyl)oxy)-2-(4-methylpiperazin-1-yl)pyrimidin-5-yl)thio)benzamide]	> 6.70
CC(Oc1nc(N2CCN(C)CC2)ncc1Sc1ccc(C(N)=O)cc1)c1cccc(N(C)C)c1 (centres unmarked) [100d, 4-((4-(1-(3-(Dimethylamino)phenyl)ethoxy)-2-(4-methylpiperazin-1-yl)pyrimidin-5-yl)thio)benzamide]	≤ 5.92
CN1CCN(c2ncc(Sc3ccc(C(N)=O)cc3)c(OCc3cccc(NC4CC4)c3)n2)CC1 [100e, 4-((4-((3-(Cyclopropylamino)benzyl)oxy)-2-(4-methylpiperazin-1-yl)pyrimidin-5-yl)thio)benzamide]	> 6.70
CN1CCN(c2ncc(Sc3ccc(C(N)=O)cc3)c(OCc3cccc(-n4cccn4)c3)n2)CC1 [100f, 4-((4-((3-(1H-Pyrazol-1-yl)benzyl)oxy)-2-(4-methylpiperazin-1-yl)pyrimidin-5-yl)thio)benzamide]	6.00 to 6.40
COc1cccc(COc2nc(N3CCN(C)CC3)ncc2Sc2ccc(C(N)=O)cc2)c1 [100g, 4-((4-((3-Methoxybenzyl)oxy)-2-(4-methylpiperazin-1-yl)pyrimidin-5-yl)thio)benzamide]	> 6.70
CN1CCN(c2ncc(Sc3ccc(C(N)=O)cc3)c(OCCc3ccccc3)n2)CC1 [100h, 4-((2-(4-Methylpiperazin-1-yl)-4-phenethoxypyrimidin-5-yl)thio)benzamide]	6.40 to 6.70
CN1CCN(c2ncc(Sc3ccc(C(N)=O)cc3)c(OCc3ccco3)n2)CC1 [100i, 4-((4-(Furan-2-ylmethoxy)-2-(4-methylpiperazin-1-yl)pyrimidin-5-yl)thio)benzamide]	6.00 to 6.40
CN1CCN(c2ncc(Sc3ccc(C(N)=O)cc3)c(OCc3ccoc3)n2)CC1 [100j, 4-((4-(Furan-3-ylmethoxy)-2-(4-methylpiperazin-1-yl)pyrimidin-5-yl)thio)benzamide]	6.40 to 6.70
CN1CCN(c2ncc(Sc3ccc(C(N)=O)cc3)c(OCc3ccc(F)cc3)n2)CC1 [100m, 4-((4-((4-Fluorobenzyl)oxy)-2-(4-methylpiperazin-1-yl)pyrimidin-5-yl)thio)benzamide]	6.40 to 6.70
C[C@H](Oc1nc(N2CCN(C)CC2)ncc1Sc1ccc(C(N)=O)cc1)c1ccc(F)cc1 [100n, (S)-4-((4-(1-(4-Fluorophenyl)ethoxy)-2-(4-methylpiperazin-1-yl)pyrimidin-5-yl)thio)benzamide]	≤ 5.92
C[C@@H](Oc1nc(N2CCN(C)CC2)ncc1Sc1ccc(C(N)=O)cc1)c1ccc(F)cc1 [100o, (R)-4-((4-(1-(4-Fluorophenyl)ethoxy)-2-(4-methylpiperazin-1-yl)pyrimidin-5-yl)thio)benzamide]	≤ 5.92
CC(=O)c1cccc(COc2nc(N3CCN(C)CC3)ncc2Sc2ccc(C(N)=O)cc2)c1 [100q, 4-((4-((3-Acetylbenzyl)oxy)-2-(4-methylpiperazin-1-yl)pyrimidin-5-yl)thio)benzamide]	6.00 to 6.40
CN1CCN(c2ncc(Sc3ccc(C(N)=O)cc3)c(OCc3ccnc(N)c3)n2)CC1 [100r, 4-((4-((2-Aminopyridin-4-yl)methoxy)-2-(4-methylpiperazin-1-yl)pyrimidin-5-yl)thio)benzamide]	5.92 to 6.00
CN1CCN(c2ncc(Sc3ccc(C(N)=O)cc3)c(OCc3cccc(I)c3)n2)CC1 [100s, 4-((4-((3-Iodobenzyl)oxy)-2-(4-methylpiperazin-1-yl)pyrimidin-5-yl)thio)benzamide]	6.40 to 6.70
[2H]c1c([2H])c([2H])c(COc2nc(N3CCN(C)CC3)ncc2Sc2ccc(C(N)=O)cc2)c([2H])c1[2H] [100t, 4-((4-(Benzyloxy-d5)-2-(4-methylpiperazin-1-yl)pyrimidin-5-yl)thio)benzamide]	6.00 to 6.40
[2H]C([2H])(Oc1nc(N2CCN(C)CC2)ncc1Sc1ccc(C(N)=O)cc1)c1ccccc1 [100u, 4-((4-(Benzyloxy-d2)-2-(4-methylpiperazin-1-yl)pyrimidin-5-yl)thio)benzamide]	6.00 to 6.40
CN1CCN(c2ncc(Sc3ccc(C(N)=O)cc3)c(OCc3ccc(I)cc3)n2)CC1 [100v, 4-((4-((4-Iodobenzyl)oxy)-2-(4-methylpiperazin-1-yl)pyrimidin-5-yl)thio)benzamide]	≤ 5.92
CN1CCN(c2ncc(Sc3ccc(C(N)=O)cc3)c(OCc3cccc(C(N)=O)c3)n2)CC1 [100w, 3-(((5-((4-Carbamoylphenyl)thio)-2-(4-methylpiperazin-1-yl)pyrimidin-4-yl)oxy)methyl)benzamide]	6.00 to 6.40
CN1CCN(c2ncc(Sc3ccc(C(N)=O)cc3)c(OCc3cccc(N)c3)n2)CC1 [100x, 4-((4-((3-Aminobenzyl)oxy)-2-(4-methylpiperazin-1-yl)pyrimidin-5-yl)thio)benzamide]	> 6.70

The next lines start with the values.

pEC50	SMILES
6.40 to 6.70	CN1CCN(c2ncc(Sc3ccc(N)nc3)c(OCc3ccc(F)cc3)n2)CC1 [146c, 5-((4-((4-Fluorobenzyl)oxy)-2-(4-methylpiperazin-1-yl)pyrimidin-5-yl)thio)pyridin-2-amine]
6.00 to 6.40	CN1CCN(c2ncc(Sc3ccc(N)nc3)c(OCc3cccc(C(F)(F)F)c3)n2)CC1 [146e, 5-((2-(4-Methylpiperazin-1-yl)-4-((3-(trifluoromethyl)benzyl)oxy)pyrimidin-5-yl)thio)pyridin-2-amine]
≤ 5.92	NC(=O)c1ccc(Sc2cnc(N3CCOCC3)nc2OCc2ccccc2)cc1 [179a]
≤ 5.92	CN(C)[C@H]1CCN(c2ncc(Sc3ccc(C(N)=O)cc3)c(OCc3ccccc3)n2)C1 [179c, (S)-4-((4-(Benzyloxy)-2-(3-(dimethylamino)pyrrolidin-1-yl)pyrimidin-5-yl)thio)benzamide]
5.92 to 6.00	CN(C)c1cccc(COc2nc(N3CCOCC3)ncc2Sc2ccc(C(N)=O)cc2)c1 [185a, 4-((4-((3-(Dimethylamino)benzyl)oxy)-2-morpholinopyrimidin-5-yl)thio)benzamide]
5.92 to 6.00	CC(C)N1CCN(c2ncc(Sc3ccc(C(N)=O)cc3)c(OCc3cccc(N(C)C)c3)n2)CC1 [185b, 4-((4-((3-(Dimethylamino)benzyl)oxy)-2-(4-isopropylpiperazin-1-yl)pyrimidin-5-yl)thio)benzamide]
6.00 to 6.40	CN(C)c1cccc(COc2nc(N3CCN(CCO)CC3)ncc2Sc2ccc(C(N)=O)cc2)c1 [185d, 4-((4-((3-(Dimethylamino)benzyl)oxy)-2-(4-(2-hydroxyethyl)piperazin-1-yl)pyrimidin-5-yl)thio)benzamide]
> 6.70	C#CCCCCN1CCN(c2ncc(Sc3ccc(C(N)=O)cc3)c(OCc3cccc(N(C)C)c3)n2)CC1 [185e, 4-((4-((3-(Dimethylamino)benzyl)oxy)-2-(4-(hex-5-yn-1-yl)piperazin-1-yl)pyrimidin-5-yl)thio)benzamide]
